This note sets out measurements from patent US9957264B2 (Merck Sharp & Dohme Corp., priority 2013, dated 2018).

The target of assay [1] is JAK1 (recombinant purified GST-tagged catalytic domain) (Homo sapiens (Human), UniProt P23458). The assay is described as follows: Jak Biochemical HTRF Assay (JAK1). The conditions noted are these: [ATP] 31.8 μM. The method, boiled down: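 Kinase reaction with biotinylated peptide substrate was started by ATP addition and run 120 min at room temperature, then quenched with EDTA stop buffer containing streptavidin-Dylight 650 and Eu-pY20 antibody. HTRF read 60 min later (665/615 nm ratio); percent inhibition vs log concentration fit to 4-parameter curve for IC50.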
JAK1 (recombinant purified GST-tagged catalytic domain), sequence (P23458 875-1153): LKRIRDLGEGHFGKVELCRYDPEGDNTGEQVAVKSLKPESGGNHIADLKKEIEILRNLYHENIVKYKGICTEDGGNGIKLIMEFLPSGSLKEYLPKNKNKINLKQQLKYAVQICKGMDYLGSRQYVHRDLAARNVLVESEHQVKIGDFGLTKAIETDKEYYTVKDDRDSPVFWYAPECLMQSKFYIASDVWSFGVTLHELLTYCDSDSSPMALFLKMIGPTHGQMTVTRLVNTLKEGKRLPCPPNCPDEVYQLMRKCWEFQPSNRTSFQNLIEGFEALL
(Time-resolved FRET reads energy transfer from a long-lived donor to a nearby acceptor.)

Assay [2] concerns the target JAK2 (recombinant purified GST-tagged catalytic domain) (Homo sapiens (Human), UniProt O60674). The assay is described as follows: Jak Biochemical HTRF Assay (JAK2). The note with it: [ATP] 8.5 μM.

JAK2 (recombinant purified GST-tagged catalytic domain), sequence (O60674 849-1124): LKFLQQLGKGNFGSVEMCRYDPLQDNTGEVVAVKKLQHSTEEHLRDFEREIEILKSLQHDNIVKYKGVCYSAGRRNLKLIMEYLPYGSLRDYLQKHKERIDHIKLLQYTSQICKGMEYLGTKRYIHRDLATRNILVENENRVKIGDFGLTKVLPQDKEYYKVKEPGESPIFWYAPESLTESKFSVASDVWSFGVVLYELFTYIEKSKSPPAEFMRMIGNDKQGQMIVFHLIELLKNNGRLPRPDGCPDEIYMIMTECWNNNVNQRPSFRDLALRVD

For the compound `CC(C)(C)OC(=O)[C@@H]1CC[C@@](CC#N)(n2nc(Nc3ccc(S(=O)(=O)C(C)(C)C)cc3)c3c(=O)[nH]ccc32)CO1` [Example 5-235, (2S,5S)-tert-butyl 5-(3-((4-(tert-butylsulfonyl)phenyl)amino)-4-oxo-4,5-dihydro-1H-pyrazolo[4,3-c]pyridin-1-yl)-5-(cyanomethyl) tetrahydro-2H-pyran-2-carboxylate], the IC50 in assay [1] was found to be 0.14 nM; in assay [2] it was 0.21 nM.
With `CN(C)S(=O)(=O)c1ccc(Nc2nn(C3(CC#N)CCN(C(=O)O[C@@H]4CCOC4)CC3)c3cc[nH]c(=O)c23)cc1` [Example 11-6, (R)-tetrahydrofuran-3-yl 4-(cyanomethyl)-4-(3-((4-(N,N-dimethylsulfamoyl)phenyl)amino)-4-oxo-4,5-dihydro-1H-pyrazolo[4,3-c]pyridin-1-yl)piperidine-1-carboxylate], the IC50 in assay [1] was found to be 0.12 nM; in assay [2] it was 0.47 nM.
In the same order, the values of `CC(F)(F)C(=O)N1CCC(CC#N)(n2nc(Nc3ccc(S(C)(=O)=O)cc3)c3c(=O)[nH]ccc32)CC1` [Example 17, 2-(1-(2,2-difluoropropanoyl)-4-(3-((4-(methylsulfonyl)phenyl)amino)-4-oxo-4,5-dihydro-1H-pyrazolo[4,3-c]pyridin-1-yl)piperidin-4-yl)acetonitrile] are 0.1 nM and 0.24 nM.
`CC(C)(C)OC(=O)N1CCC(CC#N)(n2nc(NC3CCC3)c3c(=O)[nH]ccc32)CC1` [Example 2-3, tert-butyl 4-(cyanomethyl)-4-[3-(cyclobutylamino)-4-oxo-4,5-dihydro-1H-pyrazolo[4,3-c]pyridin-1-yl]piperidine-1-carboxylate]: the half-inhibitory concentration (IC50) was 67.6 nM in assay [1] and greater than 1500 nM in assay [2].
Take `CC(C)(C)OC(=O)[C@@H]1CC[C@@](CC#N)(n2nc(Nc3ccc(C4(C(F)(F)F)CCCCN4)cc3)c3c(=O)[nH]ccc32)CO1` (single isomer, unassigned) [Example 5-287, (2S,5S)-tert-butyl 5-(cyanomethyl)-5-(4-oxo-3-((4-((S or R)-2-(trifluoromethyl)piperidin-2-yl)phenyl)amino)-4,5-dihydro-1H-pyrazolo[4,3-c]pyridin-1-yl)tetrahydro-2H-pyran-2-carboxylate]: the IC50 was 0.25 nM in assay [1] and 0.35 nM in assay [2].
The matching figures for `CC(C)(C)N1Cc2cc(Nc3nn([C@]4(CC#N)CCOC4)c4cc[nH]c(=O)c34)ccc2S1(=O)=O` (single isomer, unassigned) [Example 5-248, (R or S)-2-(3-(3-((2-(tert-butyl)-1,1-dioxido-2,3-dihydrobenzo[d]isothiazol-5-yl)amino)-4-oxo-4,5-dihydro-1H-pyrazolo[4,3-c]pyridin-1-yl)tetrahydrofuran-3-yl)acetonitrile]: 0.39 nM and 9.56 nM.
The matching figures for `Cc1cc(Nc2nn([C@]3(CC#N)CC[C@@H](C(=O)OC(C)(C)C)OC3)c3cc[nH]c(=O)c23)ccc1C(=O)N1CCSC1C` (single isomer, unassigned) [Example 5-157, (2S,5S)-tert-butyl 5-(cyanomethyl)-5-(3-((3-methyl-4-((S or R)-2-methylthiazolidine-3-carbonyl)phenyl)amino)-4-oxo-4,5-dihydro-1H-pyrazolo[4,3-c]pyridin-1-yl)tetrahydro-2H-pyran-2-carboxylate]: 0.19 nM and 0.27 nM.
The matching figures for `N#CCC1(n2nc(Nc3ccc4c(c3)COC4=O)c3c(=O)[nH]ccc32)CCCC1` [Example 5-125, 2-(1-(4-oxo-3-((1-oxo-1,3-dihydroisobenzofuran-5-yl)amino)-4,5-dihydro-1H-pyrazolo[4,3-c]pyridin-1-yl)cyclopentyl)acetonitrile]: 0.27 nM and 2.71 nM.

As usually defined, the IC50 is the concentration that gives 50% inhibition.
